Data from patent US20230150974A1 (Foghorn Therapeutics Inc., priority 2020, published 2023).

Experiments:
HiBiT-BRM = biological target: T1, HiBiT-BRM (Homo sapiens, UniProt P51531); experiment: HiBiT-BRM cell-based degradation assay (Nano-Glo HiBiT Lytic Detection); details: HeLa cells expressing HiBiT-BRM, 24 h; for DC50: read-out: BRM HiBit Degradation IC50
T1 construct: expressed in transfected cells
How it was run: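 Luminescence from HiBiT–LgBiT complementation in lysates of a stable HiBiT-BRM HeLa line measured after 24 h compound exposure. Degradation expressed as percent relative to DMSO-treated cells and cells given 2 μM of a known BRM/BRG1 degrader.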

HiBit-BRG1 = biological target: T2, HiBit-BRG1 (Homo sapiens, UniProt P51532); experiment: HiBit-BRG1 cell-based degradation assay (Nano-Glo HiBiT Lytic Detection); details: HeLa cells expressing HiBit-BRG1 and LgBit, 24 h; for DC50: read-out: BRG1 HiBit Degradation IC50; for Dmax: read-out: BRG1 HiBit Degradation Maximum (%)
T2 construct: expressed in transfected cells
How it was run: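 Seed 5000 HeLa HiBit-BRG1/LgBit cells per well; treat 24 h; equilibrate 15 min at room temperature; add Nano-Glo HiBiT lytic reagent, shake 10 min, read luminescence. Percent degradation is scaled between DMSO and 2 μM reference degrader wells.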

T2 sequence (P51532 whole entry): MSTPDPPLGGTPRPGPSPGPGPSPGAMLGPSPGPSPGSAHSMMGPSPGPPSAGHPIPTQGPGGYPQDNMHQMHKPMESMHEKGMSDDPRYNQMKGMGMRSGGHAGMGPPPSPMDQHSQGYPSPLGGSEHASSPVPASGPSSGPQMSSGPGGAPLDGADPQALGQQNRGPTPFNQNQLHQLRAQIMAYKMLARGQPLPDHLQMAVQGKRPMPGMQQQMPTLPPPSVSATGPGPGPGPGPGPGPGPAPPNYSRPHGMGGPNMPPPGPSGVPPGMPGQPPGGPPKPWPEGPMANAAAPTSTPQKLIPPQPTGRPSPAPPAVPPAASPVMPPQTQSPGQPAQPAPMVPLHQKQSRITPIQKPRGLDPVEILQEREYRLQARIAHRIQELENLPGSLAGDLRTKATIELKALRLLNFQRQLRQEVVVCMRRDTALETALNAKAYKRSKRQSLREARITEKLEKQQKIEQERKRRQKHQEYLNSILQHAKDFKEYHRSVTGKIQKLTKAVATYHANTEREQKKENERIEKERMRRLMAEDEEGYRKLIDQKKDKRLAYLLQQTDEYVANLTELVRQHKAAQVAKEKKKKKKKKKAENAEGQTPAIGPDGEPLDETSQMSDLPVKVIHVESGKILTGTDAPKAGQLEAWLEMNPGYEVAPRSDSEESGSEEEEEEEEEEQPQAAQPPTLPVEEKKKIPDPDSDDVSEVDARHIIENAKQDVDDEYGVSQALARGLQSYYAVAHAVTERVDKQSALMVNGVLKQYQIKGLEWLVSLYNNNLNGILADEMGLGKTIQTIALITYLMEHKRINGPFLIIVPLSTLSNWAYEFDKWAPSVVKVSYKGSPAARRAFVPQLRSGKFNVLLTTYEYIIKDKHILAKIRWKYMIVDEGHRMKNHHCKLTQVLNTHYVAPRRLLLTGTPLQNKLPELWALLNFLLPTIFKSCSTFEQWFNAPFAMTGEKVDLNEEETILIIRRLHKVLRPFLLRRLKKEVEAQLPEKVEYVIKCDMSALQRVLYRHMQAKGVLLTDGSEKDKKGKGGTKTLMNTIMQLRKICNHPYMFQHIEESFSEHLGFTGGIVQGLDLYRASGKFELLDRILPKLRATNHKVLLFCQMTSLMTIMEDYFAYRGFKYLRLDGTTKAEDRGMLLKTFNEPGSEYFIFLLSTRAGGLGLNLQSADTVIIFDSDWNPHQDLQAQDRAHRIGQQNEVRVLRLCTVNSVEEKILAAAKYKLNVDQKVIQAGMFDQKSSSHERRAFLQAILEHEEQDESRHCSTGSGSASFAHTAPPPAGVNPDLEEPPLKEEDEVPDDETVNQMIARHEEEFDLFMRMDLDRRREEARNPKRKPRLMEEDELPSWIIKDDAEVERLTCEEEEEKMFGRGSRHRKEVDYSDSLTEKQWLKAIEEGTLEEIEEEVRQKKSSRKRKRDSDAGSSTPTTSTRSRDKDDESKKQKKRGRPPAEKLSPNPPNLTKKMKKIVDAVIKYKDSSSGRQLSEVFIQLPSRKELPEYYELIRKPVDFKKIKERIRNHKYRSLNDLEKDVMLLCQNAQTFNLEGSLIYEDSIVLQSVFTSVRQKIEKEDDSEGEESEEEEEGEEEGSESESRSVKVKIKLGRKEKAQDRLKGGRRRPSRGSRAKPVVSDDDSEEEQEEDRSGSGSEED
T1 sequence (P51531 whole entry): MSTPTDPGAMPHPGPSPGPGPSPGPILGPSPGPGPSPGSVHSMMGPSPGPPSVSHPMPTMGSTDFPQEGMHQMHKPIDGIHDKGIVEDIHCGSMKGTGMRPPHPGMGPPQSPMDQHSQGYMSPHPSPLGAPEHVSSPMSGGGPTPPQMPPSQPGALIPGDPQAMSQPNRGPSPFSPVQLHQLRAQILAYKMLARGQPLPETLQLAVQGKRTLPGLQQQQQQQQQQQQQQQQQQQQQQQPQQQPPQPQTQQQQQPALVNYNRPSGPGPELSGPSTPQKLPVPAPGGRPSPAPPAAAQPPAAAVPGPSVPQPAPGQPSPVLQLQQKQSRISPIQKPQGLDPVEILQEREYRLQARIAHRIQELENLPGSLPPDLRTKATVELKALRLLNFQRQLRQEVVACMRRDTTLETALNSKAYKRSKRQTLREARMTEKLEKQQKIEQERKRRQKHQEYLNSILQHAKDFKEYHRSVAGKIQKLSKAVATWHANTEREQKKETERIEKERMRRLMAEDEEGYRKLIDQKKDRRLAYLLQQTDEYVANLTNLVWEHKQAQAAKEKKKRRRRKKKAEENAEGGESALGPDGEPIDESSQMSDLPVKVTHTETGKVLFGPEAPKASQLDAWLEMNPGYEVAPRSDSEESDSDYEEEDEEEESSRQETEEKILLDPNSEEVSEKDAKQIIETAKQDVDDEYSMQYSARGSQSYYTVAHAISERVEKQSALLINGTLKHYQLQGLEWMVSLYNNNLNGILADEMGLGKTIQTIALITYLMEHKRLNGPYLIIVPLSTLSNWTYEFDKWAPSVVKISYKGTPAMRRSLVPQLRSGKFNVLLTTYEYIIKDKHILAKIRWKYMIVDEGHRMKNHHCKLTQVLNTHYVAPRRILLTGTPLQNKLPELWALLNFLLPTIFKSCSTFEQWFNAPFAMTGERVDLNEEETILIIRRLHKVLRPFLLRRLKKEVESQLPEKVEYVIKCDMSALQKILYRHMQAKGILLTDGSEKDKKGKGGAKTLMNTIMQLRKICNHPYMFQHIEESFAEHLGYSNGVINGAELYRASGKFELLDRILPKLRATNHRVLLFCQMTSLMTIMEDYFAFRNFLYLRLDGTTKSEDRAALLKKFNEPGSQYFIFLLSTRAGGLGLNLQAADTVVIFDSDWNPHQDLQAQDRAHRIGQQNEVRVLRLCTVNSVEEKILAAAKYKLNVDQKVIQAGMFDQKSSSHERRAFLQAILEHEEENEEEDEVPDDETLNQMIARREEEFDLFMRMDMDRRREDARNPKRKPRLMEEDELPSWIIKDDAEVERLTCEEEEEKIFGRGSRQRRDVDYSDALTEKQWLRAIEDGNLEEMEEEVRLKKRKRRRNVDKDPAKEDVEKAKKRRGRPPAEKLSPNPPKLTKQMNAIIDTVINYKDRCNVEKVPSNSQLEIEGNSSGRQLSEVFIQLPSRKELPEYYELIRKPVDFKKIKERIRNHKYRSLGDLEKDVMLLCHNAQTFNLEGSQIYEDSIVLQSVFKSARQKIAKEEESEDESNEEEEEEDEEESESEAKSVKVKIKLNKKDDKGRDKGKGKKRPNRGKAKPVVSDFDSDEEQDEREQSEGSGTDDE

| SMILES | BRM HiBit Degradation Maximum (%) (HiBiT-BRM) | DC50 (HiBiT-BRM) | DC50 (HiBit-BRG1) | Dmax (HiBit-BRG1) |
| --- | --- | --- | --- | --- |
| Cc1ncsc1-c1ccc([C@H](C)NC(=O)[C@@H]2C[C@@H](O)CN2C(=O)[C@@H](c2cc(OCCN3CCC4(CC3)CC(C(=O)NCc3ccc(CCOc5cc(-c6ccccc6O)nnc5N)cc3)C4)no2)C(C)C)cc1 [Compound 195, N-(4-(2-((3-amino-6-(2-hydroxyphenyl)pyridazin-4-yl)oxy)ethyl)benzyl)-7-(2-((5-((R)-1-((2S,4R)-4-hydroxy-2-(((S)-1-(4-(4-methylthiazol-5-yl)phenyl)ethyl)carbamoyl)pyrrolidin-1-yl)-3-methyl-1-oxobutan-2-yl)isoxazol-3-yl)oxy)ethyl)-7-azaspiro[3.5]nonane-2-carboxamide] | A (“A” indicates maximum degradation ≥75%) | > 0.01 µM | > 0.1 µM | > 75% |
| Cc1ncsc1-c1ccc(CNC(=O)[C@@H]2C[C@@H](O)CN2C(=O)[C@@H](NC(=O)CCN2CC3(C2)CN(CC(=O)NCc2ccc(CCOc4cc(-c5ccccc5O)nnc4N)cc2)C3)C(C)(C)C)cc1 [Compound 196, (2S,4R)-1-((S)-2-(3-(6-(2-((4-(2-((3-amino-6-(2-hydroxyphenyl)pyridazin-4-yl)oxy)ethyl)benzyl)amino)-2-oxoethyl)-2,6-diazaspiro[3.3]heptan-2-yl)propanamido)-3,3-dimethylbutanoyl)-4-hydroxy-N-(4-(4-methylthiazol-5-yl)benzyl)pyrrolidine-2-carboxamide] | C (“C” indicates maximum degradation <50%) | > 1 µM | > 1 µM | < 50% |
| Cc1ncsc1-c1ccc([C@H](C)NC(=O)[C@@H]2C[C@@H](O)CN2C(=O)[C@@H](NC(=O)CCCCCCCCCCCCCC(=O)N(C)Cc2ccc(CCOc3cc(-c4ccccc4O)nnc3N)cc2)C(C)(C)C)cc1 [Compound 197, N1-(4-(2-((3-amino-6-(2-hydroxyphenyl)pyridazin-4-yl)oxy)ethyl)benzyl)-N15-((S)-1-((2S,4R)-4-hydroxy-2-(((S)-1-(4-(4-methylthiazol-5-yl)phenyl)ethyl)carbamoyl)pyrrolidin-1-yl)-3,3-dimethyl-1-oxobutan-2-yl)-N1-methylpentadecanediamide] | A (“A” indicates maximum degradation ≥75%) | > 0.01 µM | > 1 µM | < 50% |
| Cc1ncsc1-c1ccc([C@H](C)NC(=O)[C@@H]2C[C@@H](O)CN2C(=O)[C@@H](NC(=O)CCCCCCCCCC(=O)NCc2ccc(CCOc3cc(-c4ccccc4O)nnc3N)cc2)C(C)(C)C)cc1 [Compound 198, N1-(4-(2-((3-amino-6-(2-hydroxyphenyl)pyridazin-4-yl)oxy)ethyl)benzyl)-N11-((S)-1-((2S,4R)-4-hydroxy-2-(((S)-1-(4-(4-methylthiazol-5-yl)phenyl)ethyl)carbamoyl)pyrrolidin-1-yl)-3,3-dimethyl-1-oxobutan-2-yl)undecanediamide] | A (“A” indicates maximum degradation ≥75%) | > 0.01 µM | > 1 µM | < 50% |
| Cc1ncsc1-c1ccc(CNC(=O)[C@@H]2C[C@@H](O)CN2C(=O)[C@@H](NC(=O)CCN2CC(C3CCN(C(=O)c4ccc(CCOc5cc(-c6ccccc6O)nnc5N)cc4)CC3)C2)C(C)(C)C)cc1 [Compound 199, (2S,4R)-1-((S)-2-(3-(3-(1-(4-(2-((3-amino-6-(2-hydroxyphenyl)pyridazin-4-yl)oxy)ethyl)benzoyl)piperidin-4-yl)azetidin-1-yl)propanamido)-3,3-dimethylbutanoyl)-4-hydroxy-N-(4-(4-methylthiazol-5-yl)benzyl)pyrrolidine-2-carboxamide] | C (“C” indicates maximum degradation <50%) | > 1 µM | > 1 µM | < 50% |
| Cc1ncsc1-c1ccc(CNC(=O)[C@@H]2C[C@@H](O)CN2C(=O)[C@@H](NC(=O)CCN2CC3(C2)CN(C(=O)c2ccc(CCOc4cc(-c5ccccc5O)nnc4N)cc2)C3)C(C)(C)C)cc1 [Compound 200, (2S,4R)-1-((S)-2-(3-(6-(4-(2-((3-amino-6-(2-hydroxyphenyl)pyridazin-4-yl)oxy)ethyl)benzoyl)-2,6-diazaspiro[3.3]heptan-2-yl)propanamido)-3,3-dimethylbutanoyl)-4-hydroxy-N-(4-(4-methylthiazol-5-yl)benzyl)pyrrolidine-2-carboxamide] | C (“C” indicates maximum degradation <50%) | > 1 µM | > 1 µM | < 50% |
| Cc1ncsc1-c1ccc(CNC(=O)[C@@H]2C[C@@H](O)CN2C(=O)[C@@H](NC(=O)CCN2CCC3(CC2)CCN(C(=O)c2ccc(CCOc4cc(-c5ccccc5O)nnc4N)cc2)CC3)C(C)(C)C)cc1 [Compound 201, (2S,4R)-1-((S)-2-(3-(9-(4-(2-((3-amino-6-(2-hydroxyphenyl)pyridazin-4-yl)oxy)ethyl)benzoyl)-3,9-diazaspiro[5.5]undecan-3-yl)propanamido)-3,3-dimethylbutanoyl)-4-hydroxy-N-(4-(4-methylthiazol-5-yl)benzyl)pyrrolidine-2-carboxamide] | B (“B” indicates maximum degradation ≥50%) | > 1 µM | > 1 µM | < 50% |
| Cc1ncsc1-c1ccc(CNC(=O)[C@@H]2C[C@@H](O)CN2C(=O)[C@@H](NC(=O)CCN2CCC(OC3CCN(C(=O)c4ccc(CCOc5cc(-c6ccccc6O)nnc5N)cc4)CC3)CC2)C(C)(C)C)cc1 [Compound 202, (2S,4R)-1-((S)-2-(3-(4-((1-(4-(2-((3-amino-6-(2-hydroxyphenyl)pyridazin-4-yl)oxy)ethyl)benzoyl)piperidin-4-yl)oxy)piperidin-1-yl)propanamido)-3,3-dimethylbutanoyl)-4-hydroxy-N-(4-(4-methylthiazol-5-yl)benzyl)pyrrolidine-2-carboxamide] | B (“B” indicates maximum degradation ≥50%) | > 1 µM | > 1 µM | < 50% |
| Cc1ncsc1-c1ccc(CNC(=O)[C@@H]2C[C@@H](O)CN2C(=O)[C@@H](NC(=O)CCN2C[C@@H]3CN(C(=O)c4ccc(CCOc5cc(-c6ccccc6O)nnc5N)cc4)C[C@@H]3C2)C(C)(C)C)cc1 [Compound 203, (2S,4R)-1-((2S)-2-(3-(5-(4-(2-((3-amino-6-(2-hydroxyphenyl)pyridazin-4-yl)oxy)ethyl)benzoyl)hexahydropyrrolo[3,4-c]pyrrol-2(1H)-yl)propanamido)-3,3-dimethylbutanoyl)-4-hydroxy-N-(4-(4-methylthiazol-5-yl)benzyl)pyrrolidine-2-carboxamide] | B (“B” indicates maximum degradation ≥50%) | > 1 µM | > 1 µM | < 50% |
| Cc1ncsc1-c1ccc(CNC(=O)[C@@H]2C[C@@H](O)CN2C(=O)[C@@H](NC(=O)CCN2CCC(C3CN(C(=O)c4ccc(CCOc5cc(-c6ccccc6O)nnc5N)cc4)C3)CC2)C(C)(C)C)cc1 [Compound 204, (2S,4R)-1-((S)-2-(3-(4-(1-(4-(2-((3-amino-6-(2-hydroxyphenyl)pyridazin-4-yl)oxy)ethyl)benzoyl)azetidin-3-yl)piperidin-1-yl)propanamido)-3,3-dimethylbutanoyl)-4-hydroxy-N-(4-(4-methylthiazol-5-yl)benzyl)pyrrolidine-2-carboxamide] | B (“B” indicates maximum degradation ≥50%) | > 1 µM | > 1 µM | < 50% |
| Cc1ncsc1-c1ccc([C@H](C)NC(=O)[C@@H]2C[C@@H](O)CN2C(=O)[C@@H](c2cc(OCCNCc3ccc(CCOc4cc(-c5ccccc5O)nnc4N)cc3)no2)C(C)C)cc1 [Compound 205, (2S,4R)-1-[(2R)-2-[3-[2-([[4-(2-[[3-amino-6-(2-hydroxyphenyl)pyridazin-4-yl]oxy]ethyl)phenyl]methyl]amino)ethoxy]-1,2-oxazol-5-yl]-3-methylbutanoyl]-4-hydroxy-N-[(1S)-1-[4-(4-methyl-1,3-thiazol-5-yl)phenyl]ethyl]pyrrolidine-2-carboxamide] | A (“A” indicates maximum degradation ≥75%) | < 0.01 µM | > 0.1 µM | > 75% |
| Cc1ncsc1-c1ccc([C@H](C)NC(=O)[C@@H]2C[C@@H](O)CN2C(=O)[C@@H](c2cc(OCCN3CCC(O)(C(=O)NCc4ccc(CCOc5cc(-c6ccccc6O)nnc5N)cc4)CC3)no2)C(C)C)cc1 [Compound 206, N-[[4-(2-[[3-amino-6-(2-hydroxyphenyl)pyridazin-4-yl]oxy]ethyl)phenyl]methyl]-4-hydroxy-1-[2-([5-[(2R)-1-[(2S,4R)-4-hydroxy-2-[[(1S)-1-[4-(4-methyl-1,3-thiazol-5-yl)phenyl]ethyl]carbamoyl]pyrrolidin-1-yl]-3-methyl-1-oxobutan-2-yl]-1,2-oxazol-3-yl]oxy)ethyl]piperidine-4-carboxamide] | A (“A” indicates maximum degradation ≥75%) | > 0.01 µM | > 0.1 µM | > 75% |
| Cc1ncsc1-c1ccc([C@H](C)NC(=O)[C@@H]2C[C@@H](O)CN2C(=O)[C@@H](c2cc(OCCN3CCC(C4CN(C(=O)c5ccc(CCOc6cc(-c7ccccc7O)nnc6N)cc5)C4)CC3)no2)C(C)C)cc1 [Compound 207, (2S,4R)-1-[(2R)-2-[3-[2-(4-[1-[4-(2-[[3-amino-6-(2-hydroxyphenyl)pyridazin-4-yl]oxy]ethyl)benzoyl]azetidin-3-yl]piperidin-1-yl)ethoxy]-1,2-oxazol-5-yl]-3-methylbutanoyl]-4-hydroxy-N-[(1S)-1-[4-(4-methyl-1,3-thiazol-5-yl)phenyl]ethyl]pyrrolidine-2-carboxamide] | A (“A” indicates maximum degradation ≥75%) | > 0.01 µM | > 1 µM | < 50% |
